Source: patent US20260021167A1, “COMPOSITIONS AND METHODS FOR TREATING OR PREVENTING NEURODEGENERATIVE DISEASES” (Delaware State University, priority 2022, published 2026)

Columns and labels:
[1] = low and high dosages (10 or 50 mg/kg)
[2] = test system: N27 cells; experiment: Cytotoxicity (LDH) assay after PFF exposure; format: cell-based, rat; settings: N27 cells, PFF treatment; compared to PFF only control
Procedure: (§1) Cytotoxicity Assay. The lactate dehydrogenase (LDH) is a cytosolic enzyme that is released into the media during cellular stress and increased levels of cytotoxicity. The cytotoxicity assay was measured using reagents from the Pierce LDH Cytotoxicity Assay Kit (88954, Thermo). For the assay, 50 μL of media from each well after PFF exposure, followed by SENP-1 treatment, was put into wells of a new 96-well plate. The LDH reagents were prepared according to the protocol provided, and 50 μL of the LDH reagent was mixed into each well. The total 100 μL of media containing LDH and its reagent were incubated at 37° C. for 30 min, followed by the application of a stop solution. The mixture was analyzed using a spectrophotometer (SpectraMax M5e, Molecular devices) at 490 nm with a reference wavelength of 680 nm.
In this study, numerous commercially available SENP-1 inhibitors were tested for the recovery effects from preformed fibrils of alpha-synuclein (PFF)-induced PD models in vitro. The screening process includes several SENP-1 inhibitors, including specific SENP-1 inhibitors (e.g., SUMO-2 Aldehyde, Momordin lc, streptonigrin, hinokiflavonem, and siRNAs of SENP-1) and nonspecific SENP-1 inhibitors (e.g., oleanolic acid, gallic acid), in N27 dopaminergic cells after the exposure of PFF for 24 hrs.

[3] = test system: N27 dopaminergic cells; experiment: Screening of SENP-1 inhibitors (LDH, MTT, ROS, Thioflavin-T) in PFF-induced PD model in vitro; format: cell-based, rat; settings: N27 dopaminergic cells after exposure to PFF for 24 hrs
Source text: Cell Viability Assay. The MTT assay is a colorimetric assay that is based on the conversion of water-soluble MTT (3-(4,5-dimethylthiazol-2-yl)-2,5-diphenyltetrazolium bromide) into formazan crystal by mitochondrial dehydrogenase enzymes, soluble in 100% DMSO. The resulting solution is purple in color, and the color intensity is proportional to the viable cells for each well in a 96-well plate. A variety of SENP-1 inhibitors, such as SUMO-2 aldehyde, Momordin lc, streptonigrin, hinokiflavone, oleanolic acid and siRNA of SENP-1, were treated in N27 cells after PFF (1 μg/ml) exposure for 24 h. After adding 5 mM MTT dye to cells, the color intensity in MTT assays was measured using a spectrophotometer (SpectraMax M5e, Molecular devices, Dover, USA), at 570 nm with a reference wavelength of 630 nm. The cells were incubated with the MTT reagent (ab211091, Abcam) at 37° C. for 3 h, followed by solubilizing the formazan crystals in solution.
as §1
ROS Levels and Thioflavin-T Assessment. The reactive oxygen species (ROS) is a released byproduct during oxidative stress. On the other hand, thioflavin-T is an assay used to understand the level of protein aggregation that can be detrimental to cell survival. In order to assess the level of oxidative stress, all the SENP-1 inhibitors treated cells were incubated in media containing 5 μg/mL of the ROS reagent CellROX deep red reagent (C10422, Thermo Fisher Scientific) and 25 μg/mL of thioflavin-T reagent (CAS: 2390-54-7, Acros Organics) at 37° C. for 30 min. The cells were then washed 3 times with warm phosphate-buffered saline (PBS) without Ca^2+ or Mg^2+ (137 mM NaCl, 2.7 mM KCl, 4.3 mM Na2HPO4, and 1.47 mM KH2PO4), and several images from each well were collected using EVOS FL Cell Imaging Systems (Invitrogen, MA, USA). […] The intensity of red fluorescence corresponding to ROS levels and green labels corresponding to protein aggregation was analyzed by blinded raters using ImageJ. […]

[4] = test system: PFF-injected old mice; experiment: Pole test in PFF-injected mice; format: in vivo, mouse; settings: 10 and/or 50 mg/kg oral, vs PFF only
Procedure: (§2) A mouse model of Parkinson's disease is C57BL/6 male or female mice (50% each) injected with 5 μg of mouse PFF at 12 months old, followed by a treatment below for 6-7 weeks: • 1) without PFF injection, followed by vehicle (control, n=7); • 2) PFF injection, followed by vehicle (PFF only: control, n=8); • 3) PFF injection, followed by daily 10 mg/kg Momordin gavage (n=7-8); • 4) PFF injection, followed by daily 50 mg/kg Momordin gavage (n=7-8).
Pole Test. All the mice were placed on a vertical pole with their face up and habituated to face down the pole to climb down for 5 consecutive days. The time taken for a mouse to turn and position for the descend was noted, and the latency for climb-down was counted. A mouse falling off or slipping down the pole without turning was considered a failure. Videos of the pole test were taken and analyzed by a blinded rater to record the total climb-down or turn time. Minimal 5 trials were performed for each animal, and the average of 5 trials was considered as the final score for data presentation.

[5] = test system: SUMO-1 conjugated α-synuclein; experiment: Western blot of SUMO-1 conjugated α-synuclein in α-synuclein IP tissue samples; format: in vivo, mouse; settings: PFF-injected mice, vs PFF only
Procedure: A) In Western blots, Momordin reversed the toxicity from PFF injection in reducing phospho-α-synuclein and SENP-1 on α-synuclein in the MB and STR. […] A pathological marker, phosphorylated α-synuclein was increased by PFF injection, which was reversed by Momordin treatment in the MB (F) and the STR (G).
as §2

[6] = Passage of the BBB in mice; format: in vivo, mouse; settings: 10 or 50 mg/kg
[7] = test system: N27 cells; experiment: ROS level (CellROX deep red) after PFF treatment; format: cell-based, rat; settings: compared to PFF only control
Procedure: ROS Levels and Thioflavin-T Assessment. The reactive oxygen species (ROS) is a released byproduct during oxidative stress. On the other hand, thioflavin-T is an assay used to understand the level of protein aggregation that can be detrimental to cell survival. In order to assess the level of oxidative stress, all the SENP-1 inhibitors treated cells were incubated in media containing 5 μg/mL of the ROS reagent CellROX deep red reagent (C10422, Thermo Fisher Scientific) and 25 μg/mL of thioflavin-T reagent (CAS: 2390-54-7, Acros Organics) at 37° C. for 30 min. The cells were then washed 3 times with warm phosphate-buffered saline (PBS) without Ca^2+ or Mg^2+ (137 mM NaCl, 2.7 mM KCl, 4.3 mM Na2HPO4, and 1.47 mM KH2PO4), and several images from each well were collected using EVOS FL Cell Imaging Systems (Invitrogen, MA, USA). A minimum of 2 wells were dedicated to each group, and the experiments were repeated 3-4 times independently (total replicated: n=8-10/group). The intensity of red fluorescence corresponding to ROS levels and green labels corresponding to protein aggregation was analyzed by blinded raters using ImageJ.

[8] = test system: PFF-injected old mice; experiment: Rotarod in PFF-injected mice; format: in vivo, mouse; settings: 10 and/or 50 mg/kg oral, vs PFF only
Procedure: as §2
Rotarod. Rotarod is a behavioral test used to measure motor functionality. For three consecutive days, all the mice were habituated on the rotating rod comprising a horizontal plane rotating at a speed of 4 rotations per minute (rpm), increasing by 2 rpm every minute for 10 min or until they fell off the rod at 20 rpm. The data were collected over three consecutive days where the animals were placed on the rod at 4 rpm, and the rod increased the speed by 1 rpm every 16 sec for 10 min or until the mouse fell off. A longer latency to fall indicates an improved motor functionality.

[9] = test system: SUMO-1; experiment: Western blot of SUMO-1 level in PFF-exposed N27p cells; format: cell-based, rat; settings: PFF exposure, compared with PFF only
Source text: A) The RNA interference suppressed the expression level of SENP-1, which enhanced SUMO-1 level. […] One-Way ANOVA, Dunnett's test was applied for statistical analysis in comparison with PFF only (#). *: p<0.05, **: p<0.01, p<0.001 and n.s.: not significant.

For `CC1(C)CC[C@]2(C(=O)O)CC[C@]3(C)C(=CC[C@@H]4[C@@]5(C)CC[C@H](O[C@@H]6O[C@H](C(=O)O)[C@@H](O)[C@H](O[C@@H]7OC[C@@H](O)[C@H](O)[C@H]7O)[C@H]6O)C(C)(C)[C@@H]5CC[C@]43C)[C@@H]2C1` [Momordin lc], the safety in mice [1] was “safe”, the “cytotoxicity derived from PFF (LDH assay)” value [2] was “significantly reduced the cytotoxicity” and the “efficacy in preventing protein aggregation-mediated damage and reversing PFF-induced damage (LDH, MTT, ROS, Thioflavin-T assays)” value [3] was “clearly efficacious”. For the same compound, the “climb-down time in pole tests” value [4] was “reduces”, the “turn time in pole tests” value [4] was “reduces” and the “SUMO-1 conjugated α-synuclein in the MB (α-synuclein IP)” value ([5]; midbrain) was “increase in SUMO-1 conjugated α-synuclein”. The “SUMO-1 conjugated α-synuclein in the STR (α-synuclein IP)” value ([5]; striatum) was “increase in SUMO-1 conjugated α-synuclein”, the “passage of the BBB” value [6] was “effectively pass the BBB” and the “level of ROS” value [7] was “reduced the level of ROS”. For the same compound, the mobility on rotarod [8] was “enhances the mobility on rotarod” and the “level of SUMO-1 (Western blot)” value [9] was “increased level of SUMO-1”.
